This note sets out measurements from patent publication US10421779B2, “Carbazole compound having anti-virus activity” (priority 2016, dated 2019).

Common to all, as to type: cell-based
Assay [1] concerns HCV genotype 1 b (HCV replicon system). Description: HCV replicon system genotype 1b, Renilla luciferase activity. To be noted: Hepatitis C virus, 72 h, HCV genotype 1b replicon, Rluc, 3 days, read-out: Replicon EC50 1b type. The protocol: (§1) From human liver cells (Huh7.5.1 cell) infected by hepatitis C virus, the anti-virus effects by the compound of the present invention were measured. From HCV genotype 1 b (HCV replicon system), genotype 2a (HCV cell culture system, HCVcc), and genotype 3a, the EC50 values were measured.
In order to measure the EC50 value from HCV genotype 1 b, the degrees of HCV replication inhibitory activities of an experimental compound were measured. The EC50 value was measured by treating the experimental compound with the HCV replicon systems (genotype 1 b) having Renilla luciferase (Rluc) genes and genotype 1 b non-structure genes under various concentration conditions to compare the activity degree of the luciferase after 3 days elapsed time with that of the control.
(In antiviral work, replicon cells carry a viral genome segment that copies itself.)

Assay [2] deals with HCV genotype 2a (HCV cell culture system, HCVcc). Description: HCVcc genotype 2a JFH1 (JFH 5a-Rluc) virus in Huh7.5.1 cells, luciferase assay. The following applies: Hepatitis C virus, Huh-7.5.1, 72 h, HCV genotype 2a JFH 5a-Rluc, 3 days, read-out: Replicon EC50 2a type. The protocol: as §1
In order to measure the EC50 value from HCV genotype 2a, a luciferase assay was used. A JFH1 clone (JFH 5a-Rluc) virus constructed to have a Renilla luciferase enzyme (Rluc) gene in NS5A protein was infected with Huh7.5.1 cell being a host cell, and then the EC50 value was measured by taking cells grown for 3 days by treating the experimental compound under various concentration conditions, and analyzing the activity degree of the luciferase.

For assay [3], the system named is HCV genotype 3a (HCV replicon system). Description: HCV replicon system genotype 3a, firefly luciferase activity. The following applies: Hepatitis C virus, 72 h, HCV genotype 3a replicon, Fluc, 3 days, read-out: Replicon EC50 3a type. Here is the method:
as §1
In order to measure the EC50 value from genotype 3a, the value was measured through the luciferase activity. A HCV replicon system having firefly luciferase (Fluc) genes and genotype 3a non-structure genes was used. The HCV replicon system having the genes as described above was used to treat the experimental compound under various concentration conditions, and then 3 days later, the EC50 value was measured by comparing the luciferase activity with that of the control.

Setting [4] is: range limits given with own units (pM to nM).

Where two headings read alike, the source gives them in different places. Some results are limits rather than exact numbers.

With `CCCCCCCC(c1ccccc1)n1c2cc(NC(=O)[C@@H]3CCCN3C(=O)[C@H](NC(=O)OC)c3ccccc3)ccc2c2ccc(NC(=O)[C@@H]3CCCN3C(=O)[C@H](NC(=O)OC)c3ccccc3)cc21` (stereo partly drawn) [Example 29, dimethyl ((1R,1′R)-((2S,2′S)-(((9-(1-phenyloctyl)-9H-carbazole-2,7-diyl)bis(azanediyl))bis(carbonyl))bis(pyrrolidine-2,1-diyl))bis(2-oxo-1-phenylethane-2,1-diyl))dicarbamate], the EC50 (in general, the concentration that produces a half-maximal response) in assay [1] fell in the range of 10 to 100 pM; in assay [2], 1 to 10 nM; in assay [3], 10000 to 100000 pM.
On the same counts, the results for `CCCCn1c2cc(NC(=O)[C@@H]3CCCN3C(=O)[C@H](NC(=O)OC)c3ccccc3)ccc2c2ccc(-c3c[nH]c([C@@H]4CCCN4C(=O)[C@H](NC(=O)OC)c4ccccc4)n3)cc21` [Example 51, methyl ((R)-2-((S)-2-((9-butyl-7-(2-((S)-1-((R)-2-((methoxycarbonyl)amino)-2-phenylacetyl)pyrrolidine-2-yl)-1H-imidazole-4-yl)-9H-carbazole-2-yl)carbamoyl)pyrrolidine-1-yl)-2-oxo-1-phenylethyl)carbamate] are 14.5 pM, 0.387 nM and 193 pM.
On the same counts, the results for `COC(=O)N[C@@H](C(=O)N1CCC[C@H]1C(=O)Nc1ccc2c3ccc(NC(=O)[C@@H]4CCCN4C(=O)[C@H](NC(=O)OC)c4ccccc4)cc3n(C(C3CC3)C3CC3)c2c1)c1ccccc1` [Example 49, dimethyl ((1R,1′R)-((2S,2′S)-(((9-(dicyclopropylmethyl)-9H-carbazole-2,7-diyl)bis(azanediyl))bis(carbonyl))bis(pyrrolidine-2,1-diyl))bis(2-oxo-1-phenylethane-2,1-diyl))dicarbamate] are 8.4 pM, above 10 nM and 76.6 pM.
Regarding `CCCCCOc1cccc(Cn2c3cc(NC(=O)[C@@H]4CCCN4C(=O)[C@H](NC(=O)OC)c4ccccc4)ccc3c3ccc(NC(=O)[C@@H]4CCCN4C(=O)[C@H](NC(=O)OC)c4ccccc4)cc32)c1` [Example 30, dimethyl ((1R,1′R)-((2S,2′S)-(((9-(3-(pentyloxy)benzyl)-9H-carbazole-2,7-diyl)bis(azanediyl))bis(carbonyl))bis(pyrrolidine-2,1-diyl))bis(2-oxo-1-phenylethane-2,1-diyl))dicarbamate], the EC50 is 10 to 100 pM in assay [1], around 1 nM in assay [2] and 71 pM in assay [3].
As to `CCCCOc1ccccc1Cn1c2cc(NC(=O)[C@@H]3CCCN3C(=O)[C@H](NC(=O)OC)c3ccccc3)ccc2c2ccc(NC(=O)[C@@H]3CCCN3C(=O)[C@H](NC(=O)OC)c3ccccc3)cc21` [Example 32, dimethyl ((1R,1′R)-((2S,2′S)-(((9-(2-butoxybenzyl)-9H-carbazole-2,7-diyl)bis(azanediyl))bis(carbonyl))bis(pyrrolidine-2,1-diyl))bis(2-oxo-1-phenylethane-2,1-diyl))dicarbamate], the values for the EC50 in assay [1] (setting [4]) and in assay [2] were 100 to 1000 pM and 1 to 10 nM, respectively.
As for `COC(=O)N[C@@H](C(=O)N1CCC[C@H]1C(=O)Nc1ccc2c3ccc(NC(=O)[C@@H]4CCCN4C(=O)[C@H](NC(=O)OC)c4ccccc4)cc3n(CCCCCCCCCCN3CCN(C)CC3)c2c1)c1ccccc1` [Example 33, dimethyl ((1R,1′R)-((2S,2′S)-(((9-(10-(4-methylpiperazine-1-yl)decyl)-9H-carbazole-2,7-diyl)bis(azanediyl))bis(carbonyl))bis(pyrrolidine-2,1-diyl))bis(2-oxo-1-phenylethane-2,1-diyl))dicarbamate], the half-maximal effective concentration (EC50) in assay [1] (setting [4]) and in assay [3] (setting [4]) was 100 to 1000 pM each time.
For `COC(=O)N[C@@H](C(=O)N1CCC[C@H]1C(=O)Nc1ccc2c3ccc(NC(=O)[C@@H]4CCCN4C(=O)[C@H](NC(=O)OC)c4ccccc4)cc3n(Cc3cccc(C(F)(F)F)c3)c2c1)c1ccccc1` [Example 44, dimethyl ((1R,1′R)-((2S,2′S)-(((9-(3-(trifluoromethyl)benzyl)-9H-carbazole-2,7-diyl)bis(azanediyl))bis(carbonyl))bis(pyrrolidine-2,1-diyl))bis(2-oxo-1-phenylethane-2,1-diyl))dicarbamate], the concentration giving a half-maximal response (EC50) in assay [1] is around 10 pM; in assay [2], above 10 nM; in assay [3], 10 to 100 pM.
Turning to `COC(=O)N[C@@H](C(=O)N1CCC[C@H]1C(=O)Nc1ccc2c3ccc(NC(=O)[C@@H]4CCCN4C(=O)[C@H](NC(=O)OC)c4ccccc4)cc3n(Cc3ccccc3C(F)(F)F)c2c1)c1ccccc1` [Example 43, dimethyl ((1R,1′R)-((2S,2′S)-(((9-(2-(trifluoromethyl)benzyl)-9H-carbazole-2,7-diyl)bis(azanediyl))bis(carbonyl))bis(pyrrolidine-2,1-diyl))bis(2-oxo-1-phenylethane-2,1-diyl))dicarbamate], the values for the EC50 in assay [1] and in assay [2] were around 10 pM and above 10 nM, respectively.
Consider `COC(=O)N[C@@H](C(=O)N1CCC[C@H]1C(=O)Nc1ccc2c3ccc(NC(=O)[C@@H]4CCCN4C(=O)[C@H](NC(=O)OC)c4ccccc4)cc3n(CC3CCCCC3)c2c1)c1ccccc1` [Example 48, dimethyl ((1R,1′R)-((2S,2′S)-(((9-(cyclohexylmethyl)-9H-carbazole-2,7-diyl)bis(azanediyl))bis(carbonyl))bis(pyrrolidine-2,1-diyl))bis(2-oxo-1-phenylethane-2,1-diyl))dicarbamate], for which the results for the EC50 in assay [1] and in assay [3] were 7.41 pM and 161 pM, respectively.
As for `COC(=O)N[C@@H](C(=O)N1CCC[C@H]1C(=O)Nc1ccc2c3ccc(NC(=O)[C@@H]4CCCN4C(=O)[C@H](NC(=O)OC)c4ccccc4)cc3n(Cc3cccc([N+](=O)[O-])c3)c2c1)c1ccccc1` [Example 37, dimethyl ((1R,1′R)-((2S,2′S)-(((9-(3-nitrobenzyl)-9H-carbazole-2,7-diyl)bis(azanediyl))bis(carbonyl))bis(pyrrolidine-2,1-diyl))bis(2-oxo-1-phenylethane-2,1-diyl))dicarbamate], the figures for the EC50 in assay [1] and in assay [3] were 14.5 pM and 87.4 pM, respectively.
On the same counts, the results for `COC(=O)N[C@@H](C(=O)N1CCC[C@H]1C(=O)Nc1ccc2c3ccc(NC(=O)[C@@H]4CCCN4C(=O)[C@H](NC(=O)OC)c4ccccc4)cc3n(CCc3ccccc3)c2c1)c1ccccc1` [Example 50, dimethyl ((1R,1′R)-((2S,2′S)-(((9-phenethyl-9H-carbazole-2,7-diyl)bis(azanediyl))bis(carbonyl))bis(pyrrolidine-2,1-diyl))bis(2-oxo-1-phenylethane-2,1-diyl))dicarbamate] are 4.34 pM and 183 pM.
On the same counts, the results for `COC(=O)N[C@@H](C(=O)N1CCC[C@H]1C(=O)Nc1ccc2c3ccc(NC(=O)[C@@H]4CCCN4C(=O)[C@H](NC(=O)OC)c4ccccc4)cc3n(Cc3cccc(NC(=O)C(C)(C)C)c3)c2c1)c1ccccc1` [Example 38, dimethyl ((1R,1′R)-((2S,2′S)-(((9-(3-pivalamidobenzyl)-9H-carbazole-2,7-diyl)bis(azanediyl))bis(carbonyl))bis(pyrrolidine-2,1-diyl))bis(2-oxo-1-phenylethane-2,1-diyl))dicarbamate] are 35.4 pM and 81.9 pM.
With `CCCCCCCCCCn1c2cc(NC(=O)[C@@H]3CCCN3C(=O)[C@H](NC(=O)OC)c3ccccc3)ccc2c2ccc(NC(=O)[C@@H]3CCCN3C(=O)[C@H](NC(=O)OC)c3ccccc3)cc21` [Example 24, dimethyl ((1R,1′R)-((2S,2′S)-(((9-decyl-9H-carbazole-2,7-diyl)bis(azanediyl))bis(carbonyl))bis(pyrrolidine-2,1-diyl))bis(2-oxo-1-phenylethane-2,1-diyl))dicarbamate], the figures for the EC50 in assay [1] and in assay [2] were around 10 pM and 10 to 100 nM, respectively.
Consider `COCCOCCOCCn1c2cc(NC(=O)[C@@H]3CCCN3C(=O)[C@H](NC(=O)OC)c3ccccc3)ccc2c2ccc(NC(=O)[C@@H]3CCCN3C(=O)[C@H](NC(=O)OC)c3ccccc3)cc21` [Example 23, dimethyl ((1R,1′R)-((2S,2′S)-(((9-(2-(2-(2-methoxyethoxy)ethoxy)ethyl)-9H-carbazole-2,7-diyl)bis(azanediyl))bis(carbonyl))bis(pyrrolidine-2,1-diyl))bis(2-oxo-1-phenylethane-2,1-diyl))dicarbamate], for which the EC50 in assay [1] is above 1000 pM.
Turning to `COC(=O)N[C@H](C(=O)N1CCC[C@H]1C(=O)Nc1ccc2c3ccc(NC(=O)[C@@H]4CCCN4C(=O)[C@@H](NC(=O)OC)C(C)C)cc3n(C)c2c1)C(C)C` [Example 9, dimethyl ((2S,2′S)-((2S,2′S)-(((9-methyl-9H-carbazole-2,7-diyl)bis(azanediyl))bis(carbonyl))bis(pyrrolidine-2,1-diyl))bis(3-methyl-1-oxobutane-1,2-diyl))dicarbamate], the EC50 in assay [1] is above 100000 pM.
